≈ marks a conversion by molar mass, not a printed value. Structures can show the parent of a compound that is named as a salt. Where two headings read alike, the source gives them in different places. Some results are limits rather than exact numbers.

The values that follow come from US20130096116A1, “TREATMENT OF PHARMACOLOGICAL-INDUCED HYPOCHLORHYDRIA” (Genentech, Inc., priority 2011, published 2013).

Data set [1] in a line: pH solubility profile of GDC-0941 (shake flask method). It counts as physicochemical. The conditions noted are these: 50 mM USP buffer, aqueous buffer, thermodynamic from solid, 48 hours at 37° C. The method, then: The solubility test was conducted using the shake flask method. […] Each sample was prepared at a volume of approximately 2 mL, with excess solid in each sample. […] Samples were then filtered and concentrations were determined by HPLC under reversed-phase conditions using a C18 column, and elution with a phosphate buffer (pH 6.5), acetonitrile gradient. The injection volume was 5 μL, with a flow rate of 1.2 mL/min and detection at 230 nm.

Data set [2] in a line: Oral exposure of GDC-0941 in dogs with famotidine, pentagastrin or betaine HCl pretreatment. It counts as in vivo. The conditions noted are these: male, beagle, dog, plasma, 40 mg, 40 mg oral. As to the method: Group 2 dogs were pretreated with famotidine 40 mg tablet to induce hypochlorhydria and as a negative control. Group 3 dogs were pretreated with pentagastrin by intramuscular injection 6 mg/kg. Pentagastrin is a synthetic peptide which stimulates the secretion of […], pepsin, and intrinsic factor, and lowers the pH of the gut through physiologic stimulation of acid secretion. […] Group 5 dogs were pretreated with famotidine, then treated with betaine HCl, 2×750 mg tablets.
(§1) Group 1: no pretreatment (control)

A short description of data set [3]: Effect of rabeprazole on pharmacokinetics of GDC-0941 in patients with advanced solid tumors. The class given is in vivo. The conditions noted are these: cancer patients pretreated with rabeprazole 20 mg Days 4-8, Day 8 vs Day 1.
For data set [4] the following is noted: media with enough betaine HCl to lower the pH to 2.4 or below.
Data set [5] concerns gastric pH. The experiment in a line: Gastric pH (Heidelberg capsule) after betaine HCl in healthy volunteers with rabeprazole-induced hypochlorhydria. The class given is in vivo. The method, then:
The pH of the stomach was measured over time with a Heidelberg capsule with tether swallowed at t=0. […] Onset of effect of betaine HCl was rapid, with a mean time to pH<3 of 6.3 (±4.3) min, and its duration was adequate but temporary, with a gastric pH<3 and <4 lasting 72.5 (±32.9) and 76.8 (±30.4) min, respectively.
Dasatinib pharmacokinetics was evaluated in healthy volunteer subjects with rabeprazole-induced hypochlorhydria by dosing 20 mg oral rabeprazole twice daily for 4 days. On the morning (a.m.) of study day 5, subjects received an additional 20 mg oral rabeprazole, and the Heidelberg Capsule pH diagnostic system (HC) was used for continuous gastric pH monitoring. When gastric pH remained >4 for at least 15 min, a 1500 mg dose of betaine HCl was given orally, and gastric pH was monitored for 2 h. During part 2 of this study a 3-period crossover study, five of ten subjects each received: (A) 100 mg dasatinib (Control); (B) 100 mg dasatinib after rabeprazole pre-treatment; (C) 100 mg dasatinib, 1500 mg betaine HCl, after rabeprazole pre-treatment. For treatments B+C, 20 mg rabeprazole twice daily was given for 3 days prior to and on the a.m. of each study day. Gastric pH was monitored and DAS plasma concentrations were measured over 22 h (see study schematic below) with dasatinib concentration versus time results shown in FIG. 8A and exposure (AUC) in FIG. 8B.

Data set [6] can be described thus: Oral exposure of dasatinib and gastric pH in dogs with famotidine, pentagastrin or betaine HCl pretreatment. It counts as in vivo, beagle dogs. The method, then:
Dogs were treated with dasatinib 50 mg tablet (Example 5). Dogs in each group received the following pretreatment: Group 1: no pretreatment (control); Group 2: famotidine 40 mg tablet orally, 3 hours prior to dasatinib; Group 3: pentagastrin by intramuscular injection (6 mg/kg) 30 min before dasatinib administration; Groups 4 and 5: Two betaine HCl 750 mg tablets were administered to the two groups as follows: one betaine HCl tablet orally 5 min before dasatinib and the other 20 min before dasatinib Group 5 was also treated with famotidine 40 mg tablet orally, 3 hours prior to dasatinib. […] Betaine HCl performs as well as pentagastrin, and improves dasatinib/famotidine exposure (AUC, FIG. 5C).
Dasatinib pharmacokinetics was evaluated in dogs with famotidine-induced hypochlorhydria (FIG. 5A). Dasatinib was administered as a 50 mg SPRYCEL® (Bristol-Myers Squibb) tablet. Famotidine 40 mg tablets were administered 3 hrs before dasatinib. Pentagastrin injection was administered intramuscularly 30 min prior before dasatinib administration. Two betaine HCl 750 mg tablets administered at the following times: 1 orally 20 min and 5 min prior to dasatinib administration.
Five groups of naïve, male beagle dogs (n=4 per group) each received a different pretreatment prior to dasatinib treatment.
as §1
Group 2: famotidine 40 mg tablet orally, 3 hours prior to dasatinib
Group 3: pentagastrin by intramuscular injection (6 mg/kg) 30 min before dasatinib administration
Groups 4 and 5: Two betaine HCl 750 mg tablets were administered to the two groups as follows: one betaine HCl tablet orally 5 min before dasatinib and the other 20 min before dasatinib
Group 5: famotidine 40 mg tablet orally, 3 hours prior to dasatinib.

The conditions of data set [7]: 100 mg dasatinib after 40 mg omeprazole daily for 4 days; cited from earlier work.
The conditions of data set [8]: cited from earlier work.
For data set [9] the following is noted: cited from earlier work. This is another data set of the same source.
The conditions of data set [10]: cited from earlier work. The source holds these as a separate data set.
The conditions of data set [11]: cited from earlier work. The source holds these as a separate data set.
Where [12] appears, read: single 50-mg dose 10 hours following 40 mg of famotidine.

A word on the solubility: it is how much of the substance goes into solution per volume. As usually defined, the AUC is concentration integrated over time. Consider `CS(=O)(=O)N1CCN(Cc2cc3nc(-c4cccc5[nH]ncc45)nc(N4CCOCC4)c3s2)CC1` [GDC-0941, 4-(2-(1H-indazol-4-yl)-6-((4-(methylsulfonyl)piperazin-1-yl)methyl)thieno[3,2-d]pyrimidin-4-yl)morpholine], for which the solubility at 48 h in [1] (all tested pH values above pH 4.4, read-out: measured solubility) is approximately 1 µg/mL (≈ 1.95 µM); in [1] (pH 1.0, read-out: solubility), approximately 800 µg/mL (≈ 1560 µM); in data set [1] (pH 3.0, read-out: solubility), approximately 8 µg/mL (≈ 15.6 µM); in [1] (pH 7.5, read-out: solubility) it was less than 1 µg/mL. In addition, the area under the curve (AUC) in [2] (Group 4 (betaine HCl only pretreatment)) was 7.38 µM·h; in data set [2] (Group 5 (famotidine+betaine HCl), excluding animal D501 (n=3)), 7.12 µM·h. In [3], the “decrease of GDC-0941 (AUC, FIG. 7)” value is reported as 40%. Also, the “drug rapidly dissolved and maintained in solution” value in data set [4] is recorded as “greater than 90%”.

Regarding `C[N+](C)(C)CC(=O)O` [betaine HCl, Betaine hydrochloride], in data set [5] (30 min interval after dosing 1500 mg, N=6), the “lowering of gastric pH” value is recorded as 4.54 (±0.46) units. For the same compound, in data set [5] (after 1500 mg betaine HCl), the “duration of gastric pH<3” value is listed as 72.5 (±32.9) min, the “duration of gastric pH<4” value is recorded as 76.8 (±30.4) min and the “mean time to pH<3” value is recorded as 6.3 (±4.3) min. Moreover, the “effect on gastric pH” value in data set [6] (dogs treated with famotidine+betaine HCl) is recorded as “reversal of hypochlorhydria”.

Turning to `Cc1nc(Nc2ncc(C(=O)Nc3c(C)cccc3Cl)s2)cc(N2CCN(CCO)CC2)n1` [dasatinib, Dasatinib], in [7], the “decrease of AUCinf” value was 43%, the “decrease of Cmax” value is listed as 42% and the reduction of bioavailability was approximately 40%. For the same compound, the “increase in AUCinf” value in data set [8] (high fat meal) is listed as 14%. For the same compound, the “increase in AUCinf” value in [8] (low fat meal) is 21%. Also, the solubility in data set [9] (pH 2.6, 24° C.) is approximately 18000 µg/mL (≈ 36900 µM). Moreover, the solubility in data set [9] (pH 4.0, 24° C.) was approximately 690 µg/mL (≈ 1410 µM). The solubility in data set [9] (pH 4.28, 24° C.) was 205 µg/mL (≈ 420 µM). In addition, in data set [9] (pH 7.0, 24° C.), the solubility was less than 1 µg/mL. For the same compound, the “solubility of highest commercial dose strength (140 mg) in 250 mL of water” value in data set [9] (pH range of 4.3 to 7.0 at 24° C.) is “not soluble”. For the same compound, the dasatinib levels result in data set [6] (dogs, dasatinib+famotidine without betaine HCl, 50 mg tablet) was “at or below the limits of assay detection”. Moreover, the exposure result in data set [10] (Maalox 30 mL administered 2 hours prior to dasatinib) is “unchanged”. For the same compound, the “reduction of bioavailability (AUC)” value in [10] (dasatinib 50 mg BID, famotidine 40 mg 10 hours prior) is recorded as 61%. Moreover, in [10] (setting [12]), the “reduction of AUC0-12” value is listed as approximately 60% and the “reduction of Cmax” value is recorded as approximately 60%. Moreover, in [11] (in vivo), the “between-subject variability in Ka” value is recorded as “exceeded 100%”, the “between-subject variability in relative bioavailability (FR)” value was 33% and the “inter-occasion variability (IOV) within a subject in FR” value is 44%. The “decrease of FR with use of PPI” value in data set [11] (not statistically significant) is 17%.

For `NC(N)=Nc1nc(CSCCC(N)=NS(N)(=O)=O)cs1` [famotidine], the “effect on gastric pH” value in data set [6] (dogs pretreated with famotidine 40 mg) is “significant hypochlorhydria (increased gastric pH)”.
